Measured values published in patent publication US20070270408A1, “Pharmaceutical use of substituted pyrazolo[1,5-a]pyrimidines” (Novo Nordisk A/S, priority 2003, published 2007).

Biological target: T1, h-11βHSD1 (Homo sapiens, UniProt P28845)
T1 construct: made in house
Experiment: 11βHSD1 enzyme assay (SPA)
Type: biochemical
Conditions: yeast extract with h-11βHSD1, 120 nM 3H-cortisone, 4 mM β-NADPH, 60 min at 30° C.
Protocol: Pharmacological Methods 11βHSD1 Enzyme Assay Materials
^3H-cortisone and anti-rabbit Ig coated scintillation proximity assay (SPA) beads were purchased from Amersham Pharmacia Biotech, β-NADPH was from Sigma and rabbit anti-cortisol antibodies were from Fitzgerald. An extract of yeast transformed with h-11βHSD1 (Hult et al., FEBS Lett, 441, 25 (1998)) was used as the source of enzyme. The test compounds were dissolved in DMSO (10 mM). All dilutions were performed in a buffer containing 50 mM TRIS-HCl (Sigma Chemical Co), 4 mM EDTA (Sigma Chemical Co), 0.1% BSA (Sigma Chemical Co), 0.01% Tween-20 (Sigma Chemical Co) and 0.005% bacitracin (Novo Nordisk A/S), pH=7.4. Optiplate 96 wells plates were supplied by Packard. The amount of ^3H-cortisol bound to the SPA beads was measured on TopCount NXT, Packard.
h-11βHSD1, 120 nM ^3H-cortisone, 4 mM β-NADPH, antibody (1:200), serial dilutions of test compound and SPA particles (2 mg/well) were added to the wells. The reaction was initiated by mixing the different components and was allowed to proceed under shaking for 60 min at 30° C. […] Data was analysed using GraphPad Prism software.

T1 sequence (P28845 whole entry): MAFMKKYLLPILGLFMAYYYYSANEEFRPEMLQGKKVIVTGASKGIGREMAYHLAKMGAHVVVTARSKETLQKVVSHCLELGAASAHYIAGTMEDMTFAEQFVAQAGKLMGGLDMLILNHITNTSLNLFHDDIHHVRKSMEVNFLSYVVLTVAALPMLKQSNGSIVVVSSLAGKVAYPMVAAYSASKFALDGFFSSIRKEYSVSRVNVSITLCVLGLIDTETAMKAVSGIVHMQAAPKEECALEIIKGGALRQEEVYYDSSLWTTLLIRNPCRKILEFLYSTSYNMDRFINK

| Structure (SMILES) | IC50 [nM] |
| --- | --- |
| Cc1cc(C(F)(F)F)n2nc(C(=O)N3CCCCC3)cc2n1 [Example 3, (5-methyl-7-trifluoromethyl-pyrazolo[1,5-a]pyrimidin-2-yl)-(piperidin-1-yl)methanone] | 4700 |
| Cc1cc(-c2ccccc2)n2nc(C(=O)N(C)C3CCCCC3)cc2n1 [Example 4] | 340 |
